In article PMC7293270 (Scientific Reports, 2020):

How the values were obtained:
[1] = Organ distribution of sorafenib in rats; format: in vivo, Sprague-Dawley rats; details: for concentration at 6 h: Sprague-Dawley, rat, po, 40 mg/kg
Procedure: The brain, liver, heart, spleen, lung and kidney were collected and weighed. These collected samples were stored at −20 °C until analysis.
Thawed organ samples were homogenized in 50% aqueous acetonitrile (sample weight:volume ratio, 1:5), and the homogenate was then centrifuged at 13000 × g for 10 min at 4 °C. The supernatant was collected, placed in brown Eppendorf tubes, and stored at −20 °C until analysis. In brief, each organ sample (50 μL) was combined with 150 μL of IS solution (diethylstilbestrol) for protein precipitation. Finally, 20 μL of filtrate was injected into the HPLC system for analysis.

[2] = set-up: method as in earlier work; details: cited from earlier work
[3] = system: efflux transporter P-gp; details: cited from earlier work
[4] = system: HCC; details: cited from earlier work
[5] = Plasma pharmacokinetics of sorafenib with RT, with or without CsA pretreatment, in freely moving rats; format: in vivo, Sprague-Dawley rats; details: for Cmax / Tmax / AUC(0-t): Sprague-Dawley, rat, plasma, 40 mg/kg
Procedure: A freely moving rat model was designed for the current study[21] (Fig. 1A). Experimental rats were anesthetized with 1 g/mL urethane and 0.1 g/mL α-chloralose (1 mL/kg by intraperitoneal [i.p.] injection), and polyethylene tubes were then implanted in the right jugular vein for intravenous (i.v.) fluid administration. The right jugular vein was catheterized for blood sampling. The catheter traversed the subcutaneous tissue and was fixed in the dorsal neck region. After surgery, the rats were placed in an experimental cage and allowed to recover for 1 day. During the recovery period, the rats were kept warm under a light. Then, the rats were anesthetized and immobilized on a board while undergoing CT for localization of the whole liver (conventional technique, Fig. 1B) or a central area of 1.5 × 1.5 cm (SBRT technique, Fig. 1C).
The rats were randomly divided into five groups of six rats per group.
The rats were pretreated with CsA (20 mg/kg, i.p.). […] Blood samples were obtained according to a preset schedule.
Blood samples (150 µL) were withdrawn from the jugular vein with a fraction collector at 15, 30, 45, and 60 min and at 1.5, 2, 2.5, 3, 3.5 and 4 hr after drug administration. The blood samples were immediately centrifuged at 4200 × g for 10 min. The resulting plasma (50 µL) was added to 1 mL of ethyl acetate in a clean tube, vortexed for 5 min, and centrifuged at 5900 × g for 10 min. After centrifugation, the upper organic layer containing ethyl acetate was transferred to a new tube and evaporated to dryness under a nitrogen flow.
Chromatographic analysis was performed on a Model LC-20DAD HPLC system (Shimadzu, Tokyo, Japan) equipped with a Model SPD-M20A wavelength UV detector, a SIL-20AC autosampler, and an LC Solution data processing system. A […] C[18] column (50 × 2.1 mm, particle size 1.7 μm, Eclipse XDB; Agilent, Palo Alto, CA, USA) was used for HPLC separation. The mobile phase consisted of potassium dihydrogen phosphate (10 mM, pH = 3) and acetonitrile (55:45, v/v). The flow rate was set at 0.2 mL/min, and the injection volume was 5 μL. […] A peak controlled spectrum recording was selected with a range of 190–300 nm.
Pharmacokinetic parameters, including the area under the concentration vs. time curve (AUC), terminal elimination phase t1/2, Cmax, MRT, total plasma clearance and Vss, were calculated using the PK calculation software WinNonlin Standard Edition, version 1.1 (Scientific Consulting, Apex, NC, USA) using a compartmental method.

[6] = system: portal vein tumor thrombosis; test: Retrospective review: PVTT recanalization in HCC patients treated with sorafenib plus conventional RT or SBRT; format: in vivo, human
Procedure: The need for informed consent was waived by the Institutional Review Board of the Far Eastern Memorial Hospital (FEMH-IRB-108025-E) and retrospective data were collected after receiving approval from the Institutional Review Board of the Far Eastern Memorial Hospital (FEMH-IRB-108025-E). All research was performed in accordance with relevant guidelines and regulations. All tumors were staged according to the American Joint Committee on Cancer (AJCC) Cancer Staging Manual, 7th edition. A total of 90 HCC patients with PVTT were identified. […] The patients who were treated with a radiation fraction size of <5 Gy and those treated with ≥5 Gy were grouped as the conventional and the SBRT group, respectively.

[7] = cited from earlier work
[8] = oral, CsA 20 mg/kg i.p. + RT2Gy, sorafenib 40 mg/kg 1 hr later
[9] = oral, CsA 20 mg/kg i.p. + RT2Gy, sorafenib 40 mg/kg 24 hr later
[10] = oral, CsA 20 mg/kg i.p. + RT9Gy, sorafenib 40 mg/kg 1 hr later
[11] = oral, CsA 20 mg/kg i.p. + RT9Gy, sorafenib 40 mg/kg 24 hr later
[12] = oral, CsA 20 mg/kg i.p. + sorafenib 40 mg/kg
[13] = po, RT2Gy, sorafenib 40 mg/kg 1 hr later
[14] = po, RT2Gy, sorafenib 40 mg/kg 24 hr later
[15] = po, RT9Gy, sorafenib 40 mg/kg 1 hr later
[16] = po, RT9Gy, sorafenib 40 mg/kg 24 hr later
[17] = po, sorafenib 40 mg/kg p.o. only (sham RT), rats
[18] = sorafenib + SBRT (fraction size ≥ 5 Gy), n = 18
[19] = sorafenib + conventional RT (fraction size <5 Gy), n = 25

- Organ distribution vs sham group ([1]; RT2Gy and RT9Gy under the sequential regimen): did not differ significantly
- Level of sorafenib in organs vs sham group ([1]; RT9Gy concurrent with sorafenib, all organs except the brain): significantly decreased
- concentration at 6 h ([1]; brain): 140 ± 150 ng/g
- concentration at 6 h ([1]; heart): 1200 ± 360 ng/g
- concentration at 6 h ([1]; kidney): 1930 ± 750 ng/g
- concentration at 6 h ([1]; liver): 4430 ± 1560 ng/g
- concentration at 6 h ([1]; lung): 3200 ± 1000 ng/g
- concentration at 6 h ([1]; spleen): 1420 ± 530 ng/g
- Cmax [5, 8]: 1720 ± 960 ng/mL
- Tmax [5, 8]: 3.3 h
- Cmax [5, 9]: 7710 ± 3410 ng/mL
- Tmax [5, 9]: 3.75 h
- Cmax [5, 10]: 3740 ± 2170 ng/mL
- Tmax [5, 10]: 3.33 h
- Cmax [5, 11]: 5430 ± 3220 ng/mL
- Tmax [5, 11]: 3.92 h
- Cmax [5, 12]: 4690 ± 2310 ng/mL
- Tmax [5, 12]: 4 h
- Cmax [5, 13]: 10100 ± 5930 ng/mL
- Tmax [5, 13]: 2.92 h
- Cmax [5, 14]: 1890 ± 1080 ng/mL
- Tmax [5, 14]: 3.4 h
- AUC(0-t) ([5]; po, RT2Gy, sorafenib 40 mg/kg p.o. 1 hr later): 27800 ng·h/mL
- AUC(0-t) ([5]; po, RT2Gy, sorafenib 40 mg/kg p.o. 24 hr later): 4950 ng·h/mL
- Cmax [5, 15]: 12300 ± 6300 ng/mL
- Tmax [5, 15]: 3.25 h
- Cmax [5, 16]: 8690 ± 2730 ng/mL
- Tmax [5, 16]: 3.08 h
- AUC(0-t) ([5]; po, RT9Gy, sorafenib 40 mg/kg p.o. 1 hr later): 31500 ng·h/mL
- AUC(0-t) ([5]; po, RT9Gy, sorafenib 40 mg/kg p.o. 24 hr later): 24300 ng·h/mL
- AUC(0-t) ([5]; po, CsA 20 mg/kg i.p. + RT2Gy, sorafenib 40 mg/kg p.o. 1 hr later): 4630 ng·h/mL
- AUC(0-t) ([5]; po, CsA 20 mg/kg i.p. + RT2Gy, sorafenib 40 mg/kg p.o. 24 hr later): 18600 ng·h/mL
- AUC(0-t) ([5]; po, CsA 20 mg/kg i.p. + RT9Gy, sorafenib 40 mg/kg p.o. 1 hr later): 10100 ng·h/mL
- AUC(0-t) ([5]; po, CsA 20 mg/kg i.p. + RT9Gy, sorafenib 40 mg/kg p.o. 24 hr later): 12900 ng·h/mL
- AUC(0-t) ([5]; po, CsA 20 mg/kg i.p. + sorafenib 40 mg/kg p.o.): 13100 ng·h/mL
- AUC(0-t) [5, 17]: 12000 ng·h/mL
- Cmax [5, 17]: 4390 ± 2280 ng/mL
- Tmax [5, 17]: 3.75 h
- Increase in concentration of sorafenib ([5]; both concurrent and sequential RT9Gy regimens compared with sorafenib alone): more than 2 fold
SMILES: CNC(=O)c1cc(Oc2ccc(NC(=O)Nc3ccc(Cl)c(C(F)(F)F)c3)cc2)ccn1 [sorafenib, Sorafenib]
- Permeability across the gastrointestinal (GI) epithelium [2]: high
- Binding to P-gp [3]: moderate affinity
- P-gp substrate affinity [3]: moderate-affinity
- Complete or partial response rate ([4]; HCC patients, combination of sorafenib and RT): 55%
- Reduction of HCC tumor volume ([4]; case report, sorafenib + RT combination regimen): 39%
- No response (recanalization) [6, 18]: 1/18 (5.6%)
- Partial recanalization [6, 18]: 12/18 (66.7%)
- Increase in complete recanalization, SBRT vs conventional RT ([6]; sorafenib + SBRT compared to sorafenib + conventional RT): 3 fold
- No response (recanalization) [6, 19]: 10/25 (40.0%)
- Partial recanalization [6, 19]: 13/25 (52.0%)
- Reduction of AUC ([7]; average, concomitant administration of the CYP3A4 inducer rifampicin): 37%
- Orally administered dose recovered as unchanged drug ([7]; by biliary excretion or lack of absorption): Approximately 50%
